We go through seven compounds from BindingDB's records for doi:10.1016/j.bioorg.2015.09.008 (Gc University, 2015).

One test has as its target Alpha-glucosidase MAL12 (Saccharomyces cerevisiae (strain ATCC 204508 / S288c), UniProt P53341). In words: α-Glucosidase Assay. As to conditions: pH 6.8.
The target in a further test is Acetylcholinesterase (Electrophorus electricus, UniProt O42275). In words: AChE and BChE Assay. As to conditions: pH 7.7. The method, then: (§1) The AChE inhibition assay was performed according to the Ellman's method. Total volume of 100 µL reaction mixture contained 60 µL 50 mM Na2HPO4 buffer, pH 7.7. Ten µL test compound (0.5 mM well#1) was added, followed by the addition of10 µL (0.005 unit well#1 AChE, 0.5 unit well#1 BChE, Sigma Inc.) enzyme. […] The reaction was initiated by the addition of 10 µL of 0.5 mM well#1 substrate (acetylthiocholine iodide or butyrylthiocholine chloride, Sigma Inc.), followed bythe addition of 10 µL DTNB from Sigma Inc. (0.5 mM well#1). After 15 min of incubation at 37 °C, absorbance was measured using 96-well plate reader Synergy HT, Biotek, USA. All experiments were carried out with their respective controls in triplicate.

A further test deals with Cholinesterase (Homo sapiens, UniProt P06276). In words: AChE and BChE Assay. To be noted: pH 7.7. The protocol:
as §1

Chain of Acetylcholinesterase (O42275 whole entry): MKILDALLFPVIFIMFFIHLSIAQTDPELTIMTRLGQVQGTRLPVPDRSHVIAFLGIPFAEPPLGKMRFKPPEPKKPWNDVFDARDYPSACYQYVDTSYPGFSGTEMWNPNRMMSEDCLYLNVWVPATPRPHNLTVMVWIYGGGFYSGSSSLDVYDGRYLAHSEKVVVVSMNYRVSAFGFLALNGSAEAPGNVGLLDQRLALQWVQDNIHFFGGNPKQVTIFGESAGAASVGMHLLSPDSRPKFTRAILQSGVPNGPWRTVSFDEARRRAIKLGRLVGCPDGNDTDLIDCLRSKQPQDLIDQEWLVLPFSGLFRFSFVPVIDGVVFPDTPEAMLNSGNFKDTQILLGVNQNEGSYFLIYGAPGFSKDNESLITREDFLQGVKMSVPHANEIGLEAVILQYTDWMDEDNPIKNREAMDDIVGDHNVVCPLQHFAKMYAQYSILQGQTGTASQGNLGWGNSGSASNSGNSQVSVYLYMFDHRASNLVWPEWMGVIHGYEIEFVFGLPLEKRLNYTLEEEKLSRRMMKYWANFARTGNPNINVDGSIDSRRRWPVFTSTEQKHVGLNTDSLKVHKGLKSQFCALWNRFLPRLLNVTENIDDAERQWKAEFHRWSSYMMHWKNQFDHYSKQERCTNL
Chain of Alpha-glucosidase MAL12 (P53341 whole entry): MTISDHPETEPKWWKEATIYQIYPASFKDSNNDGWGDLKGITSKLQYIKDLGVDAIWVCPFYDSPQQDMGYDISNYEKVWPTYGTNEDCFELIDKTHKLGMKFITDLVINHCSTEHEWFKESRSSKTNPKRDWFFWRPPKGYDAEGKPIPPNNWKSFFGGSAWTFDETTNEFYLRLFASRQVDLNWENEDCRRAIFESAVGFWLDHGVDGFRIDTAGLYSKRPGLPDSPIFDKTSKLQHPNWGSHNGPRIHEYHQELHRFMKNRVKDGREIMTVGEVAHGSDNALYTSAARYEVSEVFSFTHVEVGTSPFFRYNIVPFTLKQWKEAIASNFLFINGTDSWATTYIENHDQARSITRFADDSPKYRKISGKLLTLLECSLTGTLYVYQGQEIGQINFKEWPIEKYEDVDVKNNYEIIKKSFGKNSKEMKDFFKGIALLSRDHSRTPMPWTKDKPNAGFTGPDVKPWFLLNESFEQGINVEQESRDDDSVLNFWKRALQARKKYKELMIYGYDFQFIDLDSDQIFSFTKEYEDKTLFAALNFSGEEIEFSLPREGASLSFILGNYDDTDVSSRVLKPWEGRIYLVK
Chain of Cholinesterase (P06276 whole entry): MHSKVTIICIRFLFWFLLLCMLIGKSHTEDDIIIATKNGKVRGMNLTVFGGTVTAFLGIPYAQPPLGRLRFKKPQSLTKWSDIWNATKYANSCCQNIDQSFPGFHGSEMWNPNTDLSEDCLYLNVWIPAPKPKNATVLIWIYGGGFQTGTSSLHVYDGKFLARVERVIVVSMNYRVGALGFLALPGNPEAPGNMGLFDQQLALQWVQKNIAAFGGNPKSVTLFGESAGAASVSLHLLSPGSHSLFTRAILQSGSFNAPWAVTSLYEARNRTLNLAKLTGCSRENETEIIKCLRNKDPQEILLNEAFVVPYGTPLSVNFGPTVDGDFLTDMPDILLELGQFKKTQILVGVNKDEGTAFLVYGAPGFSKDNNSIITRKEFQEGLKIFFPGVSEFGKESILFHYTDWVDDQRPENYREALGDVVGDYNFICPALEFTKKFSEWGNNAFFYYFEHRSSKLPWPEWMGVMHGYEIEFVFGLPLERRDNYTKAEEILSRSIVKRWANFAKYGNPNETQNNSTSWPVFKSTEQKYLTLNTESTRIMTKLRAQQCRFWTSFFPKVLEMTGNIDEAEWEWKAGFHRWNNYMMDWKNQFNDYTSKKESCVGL
Description for Alpha-glucosidase MAL12: The α-glucosidase inhibition activity was performed with slight modifications according to method. […] Thecontents were mixed, preincubated for 10 min at 37 °C and preread at 400 nm. The reaction was initiated by the addition of 10 µL of 0.5 mM substrate (p-nitrophenyl glucopyranoside, Sigma Inc.). After 30 min of incubation at 37 °C, absorbance of the yellow color produced due to the formation of p-nitrophenol was measured at 400 nm using Synergy HT (BioTek, USA) 96-well microplate reader. Acarbose was used as positive control.

Consider `O=C(NNS(=O)(=O)c1ccccc1)c1cc(C(=O)NNS(=O)(=O)c2ccccc2)nc(C(=O)NNS(=O)(=O)c2ccccc2)c1` [N',N'',N'''-(pyridine-2,4,6-tricarbonyl)tribenzenesulfonohydrazide (4a)], for which the IC50 turned out to be 32.2 µM against Alpha-glucosidase MAL12, 50.2 µM at Acetylcholinesterase and 43.8 µM on Cholinesterase. In the case of `CCS(=O)(=O)NNC(=O)c1cc(C(=O)NNS(=O)(=O)CC)nc(C(=O)NNS(=O)(=O)CC)c1` [N',N'',N'''-(pyridine-2,4,6-tricarbonyl)triethanesulfonohydrazide (4h)], the results for the IC50 on Acetylcholinesterase and at Cholinesterase were 29.1 µM and 112 µM, respectively. For the compound `CS(=O)(=O)NNC(=O)c1cc(C(=O)NNS(C)(=O)=O)nc(C(=O)NNS(C)(=O)=O)c1` [N',N'',N'''-(pyridine-2,4,6-tricarbonyl)trimethanesulfonohydrazide (4g)], the concentration for half-maximal inhibition (IC50) was determined as 10.8 µM on Acetylcholinesterase and 44.8 µM on Cholinesterase. `O=C(NNS(=O)(=O)c1ccc(Br)cc1)c1cc(C(=O)NNS(=O)(=O)c2ccc(Br)cc2)nc(C(=O)NNS(=O)(=O)c2ccc(Br)cc2)c1` [N',N'',N'''-(pyridine-2,4,6-tricarbonyl)tris(4-bromobenzenesulfonohydrazide) (4b)]: the IC50 against Alpha-glucosidase MAL12 amounted to 26.8 µM. `O=C(NNS(=O)(=O)c1ccc(Cl)cc1)c1cc(C(=O)NNS(=O)(=O)c2ccc(Cl)cc2)nc(C(=O)NNS(=O)(=O)c2ccc(Cl)cc2)c1` [N',N'',N'''-(pyridine-2,4,6-tricarbonyl)tris(4-chlorobenzenesulfonohydrazide (4d)] yielded a half-maximal inhibitory concentration (IC50) against Alpha-glucosidase MAL12 of 28.8 µM. The same measure, in the same setting: for `O=C(NNS(=O)(=O)c1ccc(F)cc1)c1cc(C(=O)NNS(=O)(=O)c2ccc(F)cc2)nc(C(=O)NNS(=O)(=O)c2ccc(F)cc2)c1` [N',N'',N'''-(pyridine-2,4,6-tricarbonyl)tris(4-fluorobenzenesulfonohydrazide (4c)] the value was 25.6 µM; for `Cc1ccc(S(=O)(=O)NNC(=O)c2cc(C(=O)NNS(=O)(=O)c3ccc(C)cc3)nc(C(=O)NNS(=O)(=O)c3ccc(C)cc3)c2)cc1` [N',N'',N'''-(pyridine-2,4,6-tricarbonyl)tris(4-methylbenzenesulfonohydrazide) (4e)], 125 µM.

As a reminder, the IC50 is the concentration that inhibits the measured activity by half.
